Tests used:
[1] = target: T1, DNA topoisomerase 1 (Homo sapiens) (UniProt P11387); assay: Potency index, ratio of compound activity to CPT activity for inhibition of recombinant human topoisomerase 1 at 100 uM
T1 sequence (whole entry): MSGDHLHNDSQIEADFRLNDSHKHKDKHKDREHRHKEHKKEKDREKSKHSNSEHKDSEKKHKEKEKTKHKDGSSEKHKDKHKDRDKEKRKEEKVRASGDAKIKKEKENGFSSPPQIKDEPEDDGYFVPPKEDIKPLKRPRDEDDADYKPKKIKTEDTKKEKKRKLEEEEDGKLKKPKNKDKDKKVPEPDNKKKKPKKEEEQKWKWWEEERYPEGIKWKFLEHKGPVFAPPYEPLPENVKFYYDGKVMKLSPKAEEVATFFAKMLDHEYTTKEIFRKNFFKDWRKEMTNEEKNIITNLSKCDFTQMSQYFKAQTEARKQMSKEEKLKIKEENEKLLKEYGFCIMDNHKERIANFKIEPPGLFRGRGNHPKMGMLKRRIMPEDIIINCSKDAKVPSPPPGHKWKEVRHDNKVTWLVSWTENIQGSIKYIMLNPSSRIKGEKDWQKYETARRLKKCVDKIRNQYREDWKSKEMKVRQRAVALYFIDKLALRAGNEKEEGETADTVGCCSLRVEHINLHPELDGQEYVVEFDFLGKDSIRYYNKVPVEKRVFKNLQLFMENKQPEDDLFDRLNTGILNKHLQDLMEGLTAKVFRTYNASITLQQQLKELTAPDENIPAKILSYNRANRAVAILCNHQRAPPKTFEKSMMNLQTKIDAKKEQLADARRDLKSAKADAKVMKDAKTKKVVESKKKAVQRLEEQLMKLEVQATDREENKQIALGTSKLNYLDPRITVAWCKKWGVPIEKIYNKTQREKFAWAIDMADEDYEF

[2] = target: T1, DNA topoisomerase 1 (Homo sapiens); assay: Inhibition of recombinant human topoisomerase 1 assessed as relaxation of supercoiled plasmid DNA pBR322 at 100 uM incubated for 30 mins by agarose gel electrophoresis
[3] = target: T1, DNA topoisomerase 1 (Homo sapiens); assay: Inhibition of recombinant human topoisomerase 1 assessed as relaxation of supercoiled plasmid DNA pBR322 at 20 uM incubated for 30 mins by agarose gel electrophoresis
[4] = target: DNA topoisomerase 2-alpha (Homo sapiens) (UniProt P11388); assay: Inhibition of recombinant human topoisomerase 2alpha assessed as relaxation of supercoiled plasmid DNA pBR322 at 100 uM incubated for 30 mins by agarose gel electrophoresis
[5] = target: DNA topoisomerase 2-alpha (Homo sapiens) (UniProt P11388); assay: Inhibition of recombinant human topoisomerase 2alpha assessed as relaxation of supercoiled plasmid DNA pBR322 at 20 uM incubated for 30 mins by agarose gel electrophoresis
[6] = target: T1, DNA topoisomerase 1 (Homo sapiens); assay: Potency index, ratio of compound activity to CPT activity for inhibition of recombinant human topoisomerase 1 at 20 uM
[7] = target: DNA topoisomerase 2-alpha (Homo sapiens) (UniProt P11388); assay: Potency index, ratio of compound activity to etoposide activity for inhibition of recombinant human topoisomerase 2alpha at 100 uM
[8] = target: DNA topoisomerase 2-alpha (Homo sapiens) (UniProt P11388); assay: Potency index, ratio of compound activity to etoposide activity for inhibition of recombinant human topoisomerase 2alpha at 20 uM
[9] = system: HCT-15; assay: Cytotoxicity against human HCT15 cells measured after 2 days by MTT assay; assay type: functional, cell-based; settings: HCT-15, 48 h
[10] = system: T47D; assay: Cytotoxicity against human T47D cells measured after 2 days by MTT assay; assay type: functional, cell-based; settings: 48 h
[11] = system: HeLa; assay: Cytotoxicity against human HeLa cells measured after 2 days by MTT assay; assay type: functional, cell-based; settings: 48 h

Sequence of DNA topoisomerase 2-alpha (Homo sapiens) (P11388 whole entry): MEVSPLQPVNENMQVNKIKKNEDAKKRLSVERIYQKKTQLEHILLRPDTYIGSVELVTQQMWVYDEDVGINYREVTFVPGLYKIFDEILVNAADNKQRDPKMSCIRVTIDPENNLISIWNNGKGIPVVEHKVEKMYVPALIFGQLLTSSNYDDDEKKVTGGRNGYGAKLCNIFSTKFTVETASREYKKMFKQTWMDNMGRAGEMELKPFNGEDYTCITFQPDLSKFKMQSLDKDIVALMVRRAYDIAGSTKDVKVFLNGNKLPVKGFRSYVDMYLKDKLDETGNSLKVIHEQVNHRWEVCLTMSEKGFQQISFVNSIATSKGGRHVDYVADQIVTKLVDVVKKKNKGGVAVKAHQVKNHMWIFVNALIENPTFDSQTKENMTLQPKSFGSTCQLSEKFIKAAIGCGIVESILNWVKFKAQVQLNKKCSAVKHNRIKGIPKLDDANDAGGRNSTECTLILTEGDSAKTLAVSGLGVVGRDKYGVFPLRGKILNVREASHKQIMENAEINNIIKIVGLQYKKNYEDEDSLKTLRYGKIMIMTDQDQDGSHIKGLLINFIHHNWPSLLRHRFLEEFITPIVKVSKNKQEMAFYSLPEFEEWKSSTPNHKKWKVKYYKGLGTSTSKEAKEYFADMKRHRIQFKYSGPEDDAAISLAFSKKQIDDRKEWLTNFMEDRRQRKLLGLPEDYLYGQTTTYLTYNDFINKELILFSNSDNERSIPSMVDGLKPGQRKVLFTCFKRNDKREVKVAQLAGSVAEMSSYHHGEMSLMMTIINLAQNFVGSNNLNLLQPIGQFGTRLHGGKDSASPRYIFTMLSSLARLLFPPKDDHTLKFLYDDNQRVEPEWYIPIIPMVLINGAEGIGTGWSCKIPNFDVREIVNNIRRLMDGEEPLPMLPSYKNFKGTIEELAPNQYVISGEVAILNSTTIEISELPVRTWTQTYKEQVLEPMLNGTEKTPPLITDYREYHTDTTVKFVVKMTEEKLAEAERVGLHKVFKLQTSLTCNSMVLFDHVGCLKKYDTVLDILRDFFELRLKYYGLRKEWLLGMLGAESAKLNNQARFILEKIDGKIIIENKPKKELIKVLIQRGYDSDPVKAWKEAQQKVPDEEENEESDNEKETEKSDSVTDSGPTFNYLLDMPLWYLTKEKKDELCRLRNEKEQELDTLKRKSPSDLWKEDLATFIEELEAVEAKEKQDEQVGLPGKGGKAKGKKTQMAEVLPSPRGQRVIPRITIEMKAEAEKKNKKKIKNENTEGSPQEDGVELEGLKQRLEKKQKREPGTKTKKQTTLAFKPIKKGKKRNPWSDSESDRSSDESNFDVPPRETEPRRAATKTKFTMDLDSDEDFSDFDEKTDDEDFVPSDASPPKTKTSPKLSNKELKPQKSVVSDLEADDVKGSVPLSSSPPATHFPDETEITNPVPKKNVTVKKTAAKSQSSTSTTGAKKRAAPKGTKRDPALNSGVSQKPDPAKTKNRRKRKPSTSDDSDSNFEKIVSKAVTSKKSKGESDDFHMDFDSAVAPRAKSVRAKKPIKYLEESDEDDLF

Row | SMILES | Ratio [1] | inhibition [2] | inhibition [3] | inhibition [4] | inhibition [5] | Ratio [6] | Ratio [7] | Ratio [8] | IC50 [9] | IC50 [10] | IC50 [11]
1 | COc1cccc(-c2nc3cc(C)ccc3c(=O)[nH]2)c1 | 1.29 | 100% | 80% | 43.6% | 25.2% | 2.6 | 0.54 | 0.5 | 4.85 µM | > 50 µM | 8.94 µM
2 | Cc1ccc2c(=O)[nH]c(-c3ccccc3OC(F)(F)F)nc2c1 | 1.29 | 100% | 100% | 0% |  | 3.25 |  |  | 15.9 µM | > 50 µM | 18.3 µM
3 | Cc1ccc2c(=O)[nH]c(-c3ccccc3F)nc2c1 | 0.98 | 81.2% | 0% | 0% |  |  |  |  | 10.3 µM | > 50 µM | 0.83 µM
4 | COc1cccc(-c2nc3ccc(C)cc3c(=O)[nH]2)c1 | 1.01 | 71.8% | 0% | 65.2% | 19% |  | 0.81 | 0.38 | 32 µM | > 50 µM | > 50 µM
5 | Cc1ccc2c(=O)[nH]c(-c3cccc4ccccc34)nc2c1 | 1.29 | 100% | 60.1% | 0% |  | 1.95 |  |  | 23.3 µM | > 50 µM | > 50 µM
6 | COc1cccc(-c2nc3ccc(N4CCCCC4)cc3c(=O)[nH]2)c1OC | 0.97 | 80.9% | 0% | 0% |  |  |  |  | 24.8 µM | 10.4 µM | 8.19 µM
7 | Cc1ccc2nc(-c3ccccc3C)[nH]c(=O)c2c1 |  | 0% |  | 0% |  |  |  |  | 11.7 µM | > 50 µM | 4.58 µM
8 | Cc1ccc2c(=O)[nH]c(-c3cccc(OC(F)(F)F)c3)nc2c1 | 0.93 | 77.2% | 0% | 0% |  |  |  |  | > 50 µM | > 50 µM | > 50 µM
9 | Cc1ccc2c(=O)[nH]c(-c3cccc(C(F)(F)F)c3)nc2c1 | 1.29 | 100% | 93.6% | 0% |  | 3.04 |  |  | > 50 µM | > 50 µM | > 50 µM
10 | Cc1ccc2nc(-c3cccc(C(F)(F)F)c3)[nH]c(=O)c2c1 | 0.64 | 45.8% | 4.2% | 11.2% | 0% | 0.13 | 0.14 |  | > 50 µM | > 50 µM | > 50 µM
11 | CCN(CC)c1ccc2nc(-c3ccccc3C(F)(F)F)[nH]c(=O)c2c1 | 0.98 | 81.7% | 13.3% | 9.4% |  | 0.49 | 0.11 |  | 0.28 µM | 2.55 µM | 0.1 µM
12 | Cc1ccc2nc(-c3cccc4ccccc34)[nH]c(=O)c2c1 | 0.05 | 4.1% |  | 5.5% |  |  | 0.06 |  | > 50 µM | > 50 µM | 5.36 µM
13 | O=c1[nH]c(-c2cccc3ccccc23)nc2ccc(N3CCCCC3)cc12 | 1.24 | 100% | 33.4% | 0% |  | 1.94 |  |  | 2.24 µM | > 50 µM | 0.33 µM
14 | Cc1cccc(-c2nc3ccc(C)cc3c(=O)[nH]2)c1 | 1.06 | 75.7% | 12.7% | 4.6% |  | 0.39 | 0.05 |  | > 50 µM | > 50 µM | > 50 µM
15 | Cc1ccc2nc(-c3ccccc3C(F)(F)F)[nH]c(=O)c2c1 | 1.01 | 72% | 21.1% | 7.2% | 0% | 0.65 | 0.09 |  | > 50 µM | > 50 µM | 2.45 µM
16 | CCN(CC)c1ccc2nc(-c3cccc4ccccc34)[nH]c(=O)c2c1 | 1.17 | 90.4% | 25.5% | 0% |  | 0.83 |  |  | 3.21 µM | 2.69 µM | 0.004 µM
17 | Cc1ccc2c(=O)[nH]c(-c3cccc(F)c3)nc2c1 | 0.93 | 77.5% | 4.3% | 9.6% |  | 0.16 | 0.12 |  | 14.4 µM | > 50 µM | > 50 µM
18 | Cc1ccc2nc(-c3ccccc3F)[nH]c(=O)c2c1 | 0.84 | 67.9% | 36.3% | 0% |  | 2.11 |  |  | > 50 µM | > 50 µM | > 50 µM
19 | CN(C)c1ccc2nc(-c3cccc4ccccc34)[nH]c(=O)c2c1 | 1.24 | 100% | 2.4% | 0% |  | 0.14 |  |  | 0.46 µM | > 50 µM | 0.05 µM
20 | Cc1ccc2nc(-c3cccc(F)c3)[nH]c(=O)c2c1 | 1.03 | 82.9% | 0.2% | 0% |  | 0.01 |  |  | > 50 µM | > 50 µM | > 50 µM
21 | Cc1ccc2nc(-c3ccccc3N(C)C)[nH]c(=O)c2c1 | 1.03 | 82.9% | 21.1% | 7.2% |  | 1.22 | 0.09 |  | > 50 µM | 26.7 µM | 14 µM
22 | Cc1cccc(-c2nc3cc(C)ccc3c(=O)[nH]2)c1 | 1.29 | 100% | 56.3% | 40.4% | 24.9% | 1.83 | 0.5 | 0.5 | 21.1 µM | > 50 µM | 11.2 µM
23 | Cc1ccc2nc(-c3cccc(OC(F)(F)F)c3)[nH]c(=O)c2c1 | 1.39 | 98.6% | 0% | 0% |  |  |  |  | > 50 µM | > 50 µM | > 50 µM
24 | Cc1ccc2c(=O)[nH]c(-c3ccccc3N(C)C)nc2c1 | 0.19 | 82.1% | 5.3% | 28.1% | 41.9% | 0.19 | 0.35 | 0.84 | 12.8 µM | 4.43 µM | 43.8 µM
25 | CCN(CC)c1ccc2nc(-c3ccccc3N(C)C)[nH]c(=O)c2c1 | 0.99 | 82.1% | 0% | 0% |  |  |  |  | 4.2 µM | 2.21 µM | 0.07 µM
26 | CC[C@@]1(O)C(=O)OCc2c1cc1n(c2=O)Cc2cc3ccccc3nc2-1 [CAMPTOTHECIN] |  |  |  |  |  |  |  |  | 6.08 µM | 1.62 µM | 1.59 µM
27 | CCN(CC)c1ccc2nc(-c3ccccc3OC(F)(F)F)[nH]c(=O)c2c1 | 0.98 | 81.2% | 0% | 0% |  |  |  |  | 1.71 µM | 1.67 µM | 0.04 µM
28 | COc1cc([C@@H]2c3cc4c(cc3[C@@H](O[C@@H]3O[C@@H]5CO[C@@H](C)O[C@H]5[C@H](O)[C@H]3O)[C@H]3COC(=O)[C@H]23)OCO4)cc(OC)c1O [ETOPOSIDE] |  |  |  |  |  |  |  |  | 5.54 µM | 9.28 µM | 7.6 µM
29 | Cc1ccc2nc(-c3ccccc3OC(F)(F)F)[nH]c(=O)c2c1 | 0.83 | 66.9% | 0% | 5.47% |  |  | 0.06 |  | 2.79 µM | > 50 µM | 0.85 µM
30 | COc1cccc2c1C(=O)c1c(O)c3c(c(O)c1C2=O)C[C@@](O)(C(=O)CO)C[C@@H]3O[C@H]1C[C@H](N)[C@H](O)[C@H](C)O1 [DOXORUBICIN] |  |  |  |  |  |  |  |  | 3.33 µM | 1.9 µM | 0.52 µM
